Literature values, collected in patent US5969017A, “Methods of treating or preventing cardiac arrhythmia” (Merck & Co., Inc., priority 1997, dated 1999).

Experiments:
IKr = conditions: background; cited from earlier work
IKs = target: T1, IKs (Cavia porcellus, UniProt O70344); conditions: Balser et al., guinea pig ventricular myocytes; cited from earlier work
T1 construct: Guinea pig ventricular myocytes were isolated; endogenous in cells; host or cells: isolated guinea pig ventricular myocytes
T1 sequence (O70344 whole entry): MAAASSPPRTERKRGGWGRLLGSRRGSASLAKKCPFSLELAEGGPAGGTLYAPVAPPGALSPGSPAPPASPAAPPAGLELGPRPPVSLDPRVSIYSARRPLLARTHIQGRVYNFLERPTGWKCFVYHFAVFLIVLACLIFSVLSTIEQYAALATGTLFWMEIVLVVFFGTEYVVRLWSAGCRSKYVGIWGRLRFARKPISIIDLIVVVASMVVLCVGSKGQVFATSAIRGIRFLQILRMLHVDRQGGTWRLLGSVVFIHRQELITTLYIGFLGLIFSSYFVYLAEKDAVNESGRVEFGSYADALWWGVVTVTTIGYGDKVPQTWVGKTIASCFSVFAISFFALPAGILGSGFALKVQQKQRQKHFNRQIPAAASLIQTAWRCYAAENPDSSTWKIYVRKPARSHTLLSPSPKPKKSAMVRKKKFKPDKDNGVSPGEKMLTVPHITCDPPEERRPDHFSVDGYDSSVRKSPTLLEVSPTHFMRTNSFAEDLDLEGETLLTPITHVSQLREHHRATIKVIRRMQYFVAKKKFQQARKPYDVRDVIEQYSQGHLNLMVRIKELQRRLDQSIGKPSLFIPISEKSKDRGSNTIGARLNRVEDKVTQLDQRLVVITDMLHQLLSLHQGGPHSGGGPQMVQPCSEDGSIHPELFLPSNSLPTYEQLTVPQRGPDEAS
T1 sequence (Q60409 whole entry partner): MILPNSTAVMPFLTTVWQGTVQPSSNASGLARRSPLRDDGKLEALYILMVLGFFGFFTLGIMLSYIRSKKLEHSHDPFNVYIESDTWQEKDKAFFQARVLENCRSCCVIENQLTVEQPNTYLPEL

INa = conditions: background; cited from earlier work
ICa = conditions: background; cited from earlier work
K+ currents = conditions: 0.4 mM as printed; cited from earlier work
L-type Ca2+ channels = conditions: Kass 1982; cited from earlier work

CC(C)NC[C@@H](O)c1ccc(NS(C)(=O)=O)cc1 [d-sotalol]
block of IKr (in words) (IKr): predominantly, if not exclusively, block IKr

CCCCc1oc2ccccc2c1C(=O)c1cc(I)c(OCCN(CC)CC)c(I)c1 [amiodarone]
block of IKs (in words) (IKs): blocker of IKs
block of INa (in words) (INa): blocks INa
block of ICa (in words) (ICa): blocks INa and ICa

CN(CCOc1ccc(NS(C)(=O)=O)cc1)CCc1ccc(NS(C)(=O)=O)cc1 [dofetilide]
block of IKr (in words) (IKr): predominantly, if not exclusively, block IKr

CS(=O)(=O)Nc1ccc2c(c1)C(O)CC1(CCN(C3CCc4cc(C#N)ccc4C3)CC1)O2 (single isomer, unassigned) [MK-499, methanesulfonamide--N--[1'-6-cyano-1,2,3,4-tetrahydro-2-naphthalenyl)-3,4-dihydro-4-hydroxyspiro[2H-1-benzopyran-2,4'-piperidin]-6yl], (+)-, monochloride]
block of IKr (in words) (IKr): predominantly, if not exclusively, block IKr

COC(=O)C1=C(C)NC(C)=C(C(=O)OCC(C)C)C1c1ccccc1[N+](=O)[O-] (centres unmarked) [Nisoldipine]
effect on K+ currents (in words) (K+ currents): no effect on K^+ currents
block of L-type Ca2+ channels (in words) (L-type Ca2+ channels): relatively specific blocker
